Data from PMC9233739 (Journal of medicinal chemistry, 2016).

Columns and labels:
J774 cell lines = assay: cytotoxicity in J774 cells, 96 well plate format; assay type: cell-based; details: Mus musculus, J774, read-out: EC50 J774 (internal controls)
P. falciparum TM90-C2B = assay: microbe, parasite or virus in culture; assay type: cell-based; details: Plasmodium falciparum, TM90, read-out: EC50 TM90-C2B
[1] = system: P. berghei / P. cynomolgi infections; details: cited from earlier work
[2] = system: Plasmodium berghei-GFP parasites; assay: modified Thompson test in mice; details: 10 mg/kg oral on days 3, 4, 5 in HEC/Tween; vs untreated control animals
P. berghei sporozoites = assay type: cell-based; details: for LBI (TM90-C2B/Pb): liver blood index LBI = TM90-C2B/Pb; for LBI (W2/Pb): liver blood index LBI = W2/Pb

## O=C1C(O)=C([C@H]2CC[C@H](c3ccc(Cl)cc3)CC2)C(=O)c2ccccc21 [ATO, atovaquone]
J774 cell lines
  EC50: 23.8 µM
P. falciparum TM90-C2B
  EC50: 0.0184 µM

## CCN(CC)CCCC(C)Nc1ccnc2cc(Cl)ccc12 (stereo not shown) [CQ, Chloroquine]
J774 cell lines
  EC50: 47.2 µM

## CCCCc1cc2c(=O)c(C(=O)OC)c[nH]c2cc1OCCOc1ccccc1 [Compound 6b]
[1]
  dose producing radical cures: 15 mg/kg
[2]
  Inhibition (%) Day 6 PE: <1%

## COC(=O)c1c[nH]c2cc(OCCCc3ccccc3)ccc2c1=O [Compound 6j]
P. berghei sporozoites
  LBI (TM90-C2B/Pb): >149

## COC(=O)c1c[nH]c2cc(F)ccc2c1=O [Compound 6n]
P. berghei sporozoites
  LBI (TM90-C2B/Pb): <3.95
  LBI (W2/Pb): <0.262

## COC(=O)c1c[nH]c2ccc(OC)cc2c1=O [Compound 6o]
P. berghei sporozoites
  LBI (TM90-C2B/Pb): >134

## COC(=O)c1c[nH]c2ccc(-c3ccccc3)cc2c1=O [Compound 6u]
P. berghei sporozoites
  LBI (TM90-C2B/Pb): <40.1
  LBI (W2/Pb): <11.7

## CCCc1cc2c(=O)c(C(=O)OC)c[nH]c2cc1OCCOc1ccccc1 [Compound 6x]
P. berghei sporozoites
  LBI (TM90-C2B/Pb): >707
  LBI (W2/Pb): >2.62

## CCCCCc1cc2c(=O)c(C(=O)OC)c[nH]c2cc1OCCOc1ccccc1 [Compound 6y]
P. berghei sporozoites
  LBI (TM90-C2B/Pb): >123
  LBI (W2/Pb): >0.33

## O=c1cc[nH]c2cc(OCCOc3ccccc3)ccc12 [Compound 8a]
P. berghei sporozoites
  LBI (TM90-C2B/Pb): <21.7
  LBI (W2/Pb): <16.8

## CCCCc1ccc2[nH]ccc(=O)c2c1 [Compound 8c]
P. berghei sporozoites
  LBI (TM90-C2B/Pb): >31.4

## C[C@H]1[C@@H](O)O[C@@H]2O[C@@]3(C)CC[C@H]4[C@H](C)CC[C@@H]1[C@@]24OO3 [DHA, dihydroartemisinin]
J774 cell lines
  EC50: 1.53 µM
